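Five concentrations, 48 hours, 96-well plates. GI50 = concentration required for 50% inhibition of growth.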 Active and inactive are the calls of the source. No stated cut-off is given here; in the data, active = GI50 up to about 1.1 µM and inactive = higher.
How the values were obtained:
Assay in all cases: NCI tumour cell line growth inhibition, 48 h
OVCAR-3 = tested on: OVCAR-3
MCF7 = tested on: MCF7
BT-549 = tested on: BT-549
UACC-62 = tested on: UACC-62
SK-OV-3 = tested on: SK-OV-3
HCC 2998 = tested on: HCC 2998
OVCAR-5 = tested on: OVCAR-5
HCT-116 = tested on: HCT-116
SNB-19 = tested on: SNB-19
Malme-3M = tested on: Malme-3M
NCI-H460 = tested on: NCI-H460
NCI-H23 = tested on: NCI-H23
Hs-578T = tested on: Hs-578T
SR = tested on: SR
SN12C = tested on: SN12C
HCT-15 = tested on: HCT-15
HT-29 = tested on: HT-29
HL-60 = tested on: HL-60
IGROV-1 = tested on: IGROV-1
NCI/ADR-RES = tested on: NCI/ADR-RES

| Structure (SMILES) | GI50 (OVCAR-3) | GI50 (MCF7) | GI50 (BT-549) | GI50 (UACC-62) | GI50 (SK-OV-3) | GI50 (HCC 2998) | GI50 (OVCAR-5) | GI50 (HCT-116) | GI50 (SNB-19) | GI50 (Malme-3M) | GI50 (NCI-H460) | GI50 (NCI-H23) | GI50 (Hs-578T) | GI50 (SR) | GI50 (SN12C) | GI50 (HCT-15) [µM] | GI50 (HT-29) | GI50 (HL-60) | GI50 (IGROV-1) | GI50 (NCI/ADR-RES) |
| --- | --- | --- | --- | --- | --- | --- | --- | --- | --- | --- | --- | --- | --- | --- | --- | --- | --- | --- | --- | --- |
| Brc1ccccc1/C=N\C12CC3CC(CC(C3)C1)C2 | 23.8 µM (inactive) | 7.24 µM (inactive) | > 100 µM (inactive) | 12 µM (inactive) | > 100 µM (inactive) | > 100 µM (inactive) | > 100 µM (inactive) | 1.85 µM (inactive) | > 100 µM (inactive) | > 67.9 µM (inactive) | > 100 µM (inactive) | > 65 µM (inactive) | > 64.6 µM (inactive) | 1.15 µM (inactive) | > 63.1 µM (inactive) | 1.99 | 38.4 µM (inactive) | 0.879 µM (active) | > 100 µM (inactive) | > 100 µM (inactive) |
| COc1cc(C(=O)N(C(=S)OCc2ccccn2)c2ccccc2)cc(OC)c1OC | > 100 µM (inactive) | 33.7 µM (inactive) | 41 µM (inactive) | 56.4 µM (inactive) | > 100 µM (inactive) | – | 49.2 µM (inactive) | 44.1 µM (inactive) | > 100 µM (inactive) | 8.22 µM (inactive) | 35.6 µM (inactive) | 86.1 µM (inactive) | 53.7 µM (inactive) | 8.47 µM (inactive) | 43 µM (inactive) | 39.6 | 29.9 µM (inactive) | 27 µM (inactive) | 16.3 µM (inactive) | 39.4 µM (inactive) |
| COc1cc(/C=C/c2nc(NC(=S)Nc3ccccc3)nnc2C)cc(OC)c1OC | – | 13.9 µM (inactive) | 25.2 µM (inactive) | 14.1 µM (inactive) | 29.6 µM (inactive) | 12.6 µM (inactive) | 31.6 µM (inactive) | 24.7 µM (inactive) | 32.5 µM (inactive) | 23.9 µM (inactive) | 15.7 µM (inactive) | 17.3 µM (inactive) | 17.6 µM (inactive) | 12.4 µM (inactive) | 39.1 µM (inactive) | 11.2 | 14.7 µM (inactive) | 8.3 µM (inactive) | 27.2 µM (inactive) | 28.4 µM (inactive) |
| CN(C)c1ccc(/C=c2/c3ccccc3n3c2cc(NC(=O)NCCC[N+](C)(C)C)[n+]3C)cc1 | 45.4 µM (inactive) | 46.6 µM (inactive) | > 100 µM (inactive) | > 100 µM (inactive) | > 100 µM (inactive) | – | > 100 µM (inactive) | > 100 µM (inactive) | 64.1 µM (inactive) | > 100 µM (inactive) | > 100 µM (inactive) | > 100 µM (inactive) | > 100 µM (inactive) | 75.9 µM (inactive) | 0.432 µM (active) | > 100 | > 100 µM (inactive) | 42.9 µM (inactive) | 16.4 µM (inactive) | > 100 µM (inactive) |
| N#Cc1c(-c2ccccc2)cc(Nc2ccc(Cl)cc2)n2c1nc1ccccc12 | 1.85 µM (inactive) | 3.48 µM (inactive) | 4.59 µM (inactive) | 0.975 µM (active) | 2.72 µM (inactive) | 3.78 µM (inactive) | 3.9 µM (inactive) | 1.96 µM (inactive) | 2.93 µM (inactive) | 5.16 µM (inactive) | 1.67 µM (inactive) | 2.64 µM (inactive) | 1.59 µM (inactive) | 2.73 µM (inactive) | 2.28 µM (inactive) | 3.37 | 2.14 µM (inactive) | – | 1.36 µM (inactive) | 2.44 µM (inactive) |
| CSC(=O)/C=C1\SS/C(=C\C(=O)SC)S1 | 2.99 µM (inactive) | 2.74 µM (inactive) | 1.69 µM (inactive) | 0.796 µM (active) | – | 1.8 µM (inactive) | 3.98 µM (inactive) | 1.69 µM (inactive) | 6.92 µM (inactive) | 2.13 µM (inactive) | 2.26 µM (inactive) | 3.08 µM (inactive) | 3.05 µM (inactive) | 1.96 µM (inactive) | 1.82 µM (inactive) | 2.06 | 2.47 µM (inactive) | 1.12 µM (active) | 3.37 µM (inactive) | 2.34 µM (inactive) |
| CC(C)[C@H]1NC(=O)[C@H]2N=C(O[C@@H]2C)[C@@H]2CCCN2C(=O)[C@H](Cc2ccccc2)NC(=O)[C@@H]2CSC(=N2)[C@@H](Cc2ccccc2)NC(=O)[C@@H]2CSC1=N2 | 38.5 µM (inactive) | > 100 µM (inactive) | > 100 µM (inactive) | 50 µM (inactive) | > 100 µM (inactive) | 21.7 µM (inactive) | > 100 µM (inactive) | 90.8 µM (inactive) | > 100 µM (inactive) | > 100 µM (inactive) | – | > 100 µM (inactive) | > 100 µM (inactive) | > 100 µM (inactive) | > 100 µM (inactive) | > 100 | 84.5 µM (inactive) | > 100 µM (inactive) | 41.1 µM (inactive) | 86.5 µM (inactive) |

Reference: ChEMBL document CHEMBL1201862, “PubChem BioAssay data set” (2004)
